In article PMC7586344, “Discovery of Novel pERK1/2- or β-Arrestin-Preferring 5-HT1A Receptor-Biased Agonists: Diversified Therapeutic-like versus Side Effect Profile” (Journal of Medicinal Chemistry, 2020):

Legend:
[1] = Intrinsic clearance; format: in vitro ADME; details: rat, rat liver microsomes, pH 7.4
[2] = molecular target: T1, 5-HT2B (Homo sapiens, UniProt P41595); assay: Off-target binding screen; details: 1000 nM, read-out: % Inhibition of Control Specific Binding
T1 construct: Eurofins Pharma Discovery Services (contract screen)
T1 sequence (P41595 whole entry, species assumed): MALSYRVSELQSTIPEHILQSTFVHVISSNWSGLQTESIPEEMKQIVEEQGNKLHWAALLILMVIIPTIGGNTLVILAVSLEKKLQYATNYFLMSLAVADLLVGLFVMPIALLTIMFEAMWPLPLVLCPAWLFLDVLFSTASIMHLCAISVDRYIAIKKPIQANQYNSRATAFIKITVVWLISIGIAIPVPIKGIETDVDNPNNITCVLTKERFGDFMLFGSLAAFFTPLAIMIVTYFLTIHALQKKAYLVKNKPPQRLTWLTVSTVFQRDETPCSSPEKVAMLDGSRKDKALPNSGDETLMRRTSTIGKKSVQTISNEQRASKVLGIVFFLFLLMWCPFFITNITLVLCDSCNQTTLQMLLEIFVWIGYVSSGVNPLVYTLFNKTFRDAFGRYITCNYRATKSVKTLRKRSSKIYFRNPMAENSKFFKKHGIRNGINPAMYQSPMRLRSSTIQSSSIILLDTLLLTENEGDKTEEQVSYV

[3] = molecular target: T2, 5-HT2C (Homo sapiens, UniProt P28335); assay: Off-target binding screen; details: 1000 nM, read-out: % Inhibition of Control Specific Binding
T2 construct: Eurofins Pharma Discovery Services (contract screen)
T2 sequence (P28335 33-458): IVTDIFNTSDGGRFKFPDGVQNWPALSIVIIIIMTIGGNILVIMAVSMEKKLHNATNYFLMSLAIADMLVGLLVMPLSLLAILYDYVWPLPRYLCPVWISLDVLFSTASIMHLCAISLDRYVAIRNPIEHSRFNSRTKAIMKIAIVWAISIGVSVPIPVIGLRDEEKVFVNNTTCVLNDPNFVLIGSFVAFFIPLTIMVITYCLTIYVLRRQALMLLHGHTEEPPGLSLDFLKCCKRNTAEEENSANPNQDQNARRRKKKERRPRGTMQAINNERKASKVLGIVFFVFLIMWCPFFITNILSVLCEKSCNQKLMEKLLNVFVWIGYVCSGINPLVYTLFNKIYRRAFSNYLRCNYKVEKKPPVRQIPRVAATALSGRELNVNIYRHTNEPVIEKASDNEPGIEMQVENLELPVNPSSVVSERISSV

[4] = molecular target: T3, 5-HT3 (Homo sapiens, UniProt P46098); assay: Off-target binding screen; details: 1000 nM, read-out: % Inhibition of Control Specific Binding
T3 construct: Eurofins Pharma Discovery Services (contract screen)
T3 sequence (P46098 24-478): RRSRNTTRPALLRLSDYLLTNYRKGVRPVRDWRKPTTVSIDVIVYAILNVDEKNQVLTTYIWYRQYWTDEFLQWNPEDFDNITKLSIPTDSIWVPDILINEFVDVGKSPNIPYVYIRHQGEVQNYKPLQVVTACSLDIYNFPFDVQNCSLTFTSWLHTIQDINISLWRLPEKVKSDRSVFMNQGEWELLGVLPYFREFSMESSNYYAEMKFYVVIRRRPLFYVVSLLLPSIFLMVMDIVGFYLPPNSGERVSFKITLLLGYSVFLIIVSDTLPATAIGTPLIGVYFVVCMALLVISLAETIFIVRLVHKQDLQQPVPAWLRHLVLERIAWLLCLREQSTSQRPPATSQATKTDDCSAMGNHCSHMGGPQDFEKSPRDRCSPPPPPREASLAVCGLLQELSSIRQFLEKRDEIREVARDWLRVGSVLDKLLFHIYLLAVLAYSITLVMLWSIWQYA

[5] = molecular target: T4, α2B (Homo sapiens, UniProt P18089); assay: Off-target binding screen; details: read-out: % Inhibition of Control Specific Binding; for inhibition at 0.01 µM: 10 nM; for inhibition at 0.1 µM: 100 nM; for inhibition at 1 µM: 1000 nM
T4 construct: Eurofins Pharma Discovery Services (contract screen)
T4 sequence (P18089 1-450): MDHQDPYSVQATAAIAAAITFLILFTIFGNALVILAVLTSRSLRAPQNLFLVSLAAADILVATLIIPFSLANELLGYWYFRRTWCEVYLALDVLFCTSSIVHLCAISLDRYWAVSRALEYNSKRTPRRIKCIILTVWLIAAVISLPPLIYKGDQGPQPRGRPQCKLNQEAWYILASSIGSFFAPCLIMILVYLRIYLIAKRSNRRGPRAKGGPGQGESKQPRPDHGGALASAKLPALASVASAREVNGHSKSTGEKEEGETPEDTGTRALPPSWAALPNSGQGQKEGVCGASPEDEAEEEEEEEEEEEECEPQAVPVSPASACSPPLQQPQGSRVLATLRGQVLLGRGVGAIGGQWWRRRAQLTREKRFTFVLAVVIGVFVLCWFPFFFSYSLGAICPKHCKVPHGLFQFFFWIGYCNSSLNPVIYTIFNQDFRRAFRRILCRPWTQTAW

[6] = molecular target: T5, D1 (Homo sapiens, UniProt P21728); assay: Off-target binding screen; details: read-out: % Inhibition of Control Specific Binding; for inhibition at 1 µM: 1000 nM
T5 construct: Eurofins Pharma Discovery Services (contract assay)
T5 sequence (P21728 whole entry): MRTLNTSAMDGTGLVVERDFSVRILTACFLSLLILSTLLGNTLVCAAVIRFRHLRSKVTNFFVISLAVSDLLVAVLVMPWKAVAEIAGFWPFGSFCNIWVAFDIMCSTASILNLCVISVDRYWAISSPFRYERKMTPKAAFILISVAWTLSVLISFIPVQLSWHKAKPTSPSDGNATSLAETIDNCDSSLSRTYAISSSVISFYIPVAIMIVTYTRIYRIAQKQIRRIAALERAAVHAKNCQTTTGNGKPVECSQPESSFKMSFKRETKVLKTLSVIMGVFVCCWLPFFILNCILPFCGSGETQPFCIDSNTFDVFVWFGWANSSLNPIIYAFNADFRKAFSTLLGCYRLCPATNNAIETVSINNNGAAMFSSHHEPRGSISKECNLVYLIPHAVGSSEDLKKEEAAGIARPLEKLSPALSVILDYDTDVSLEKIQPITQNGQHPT

[7] = molecular target: T6, CB1 (Homo sapiens, UniProt P21554); assay: Off-target binding screen; details: 1000 nM, read-out: % Inhibition of Control Specific Binding
T6 construct: Eurofins Pharma Discovery Services (contract assay)
T6 sequence (P21554 whole entry, species assumed): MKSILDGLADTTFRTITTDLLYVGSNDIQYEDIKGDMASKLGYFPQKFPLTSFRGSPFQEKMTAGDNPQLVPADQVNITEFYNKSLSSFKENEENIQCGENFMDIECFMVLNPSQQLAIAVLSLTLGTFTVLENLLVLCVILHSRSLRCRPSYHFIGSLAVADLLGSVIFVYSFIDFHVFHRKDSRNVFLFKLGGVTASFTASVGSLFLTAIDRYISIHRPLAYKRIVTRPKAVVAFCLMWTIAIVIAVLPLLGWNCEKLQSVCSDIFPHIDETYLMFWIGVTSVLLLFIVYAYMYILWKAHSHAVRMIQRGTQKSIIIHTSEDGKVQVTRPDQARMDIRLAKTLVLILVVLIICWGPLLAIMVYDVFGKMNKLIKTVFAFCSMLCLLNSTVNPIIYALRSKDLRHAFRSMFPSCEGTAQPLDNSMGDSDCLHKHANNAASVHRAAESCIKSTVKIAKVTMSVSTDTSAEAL

[8] = molecular target: T7, M3 (Homo sapiens, UniProt P20309); assay: Off-target binding screen; details: 1000 nM, read-out: % Inhibition of Control Specific Binding
T7 construct: Eurofins Pharma Discovery Services (contract assay)
T7 sequence (P20309 whole entry): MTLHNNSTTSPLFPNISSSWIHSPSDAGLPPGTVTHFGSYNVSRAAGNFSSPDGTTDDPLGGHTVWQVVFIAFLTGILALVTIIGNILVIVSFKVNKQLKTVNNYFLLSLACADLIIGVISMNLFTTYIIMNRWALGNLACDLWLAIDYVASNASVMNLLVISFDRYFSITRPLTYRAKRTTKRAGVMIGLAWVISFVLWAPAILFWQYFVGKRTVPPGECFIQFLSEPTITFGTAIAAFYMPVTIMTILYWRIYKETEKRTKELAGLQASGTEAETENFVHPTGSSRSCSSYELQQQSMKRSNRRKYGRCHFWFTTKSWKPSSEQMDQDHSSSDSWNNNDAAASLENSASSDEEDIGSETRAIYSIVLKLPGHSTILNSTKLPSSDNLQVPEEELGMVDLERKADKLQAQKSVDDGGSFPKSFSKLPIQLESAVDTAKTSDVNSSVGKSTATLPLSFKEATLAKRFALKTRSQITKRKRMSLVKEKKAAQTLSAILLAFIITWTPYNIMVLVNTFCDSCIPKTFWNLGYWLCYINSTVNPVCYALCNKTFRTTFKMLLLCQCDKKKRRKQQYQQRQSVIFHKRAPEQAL

[9] = molecular target: T8, M4 (Homo sapiens, UniProt P08173); assay: Off-target binding screen; details: 1000 nM, read-out: % Inhibition of Control Specific Binding
T8 construct: Eurofins Pharma Discovery Services (contract assay)
T8 sequence (P08173 1-479): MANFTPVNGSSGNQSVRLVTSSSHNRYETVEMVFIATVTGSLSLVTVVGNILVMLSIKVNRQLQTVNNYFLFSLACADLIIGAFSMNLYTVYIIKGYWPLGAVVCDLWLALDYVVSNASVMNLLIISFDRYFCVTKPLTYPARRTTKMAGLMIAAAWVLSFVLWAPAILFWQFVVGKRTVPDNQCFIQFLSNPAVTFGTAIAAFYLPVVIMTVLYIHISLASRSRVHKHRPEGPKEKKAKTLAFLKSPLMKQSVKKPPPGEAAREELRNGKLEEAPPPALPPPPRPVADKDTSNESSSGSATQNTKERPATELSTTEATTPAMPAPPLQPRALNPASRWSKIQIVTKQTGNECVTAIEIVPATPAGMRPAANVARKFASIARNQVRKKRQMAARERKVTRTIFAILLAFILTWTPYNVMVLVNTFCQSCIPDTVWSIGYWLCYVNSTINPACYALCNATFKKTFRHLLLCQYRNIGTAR

[10] = molecular target: T9, H2 (Homo sapiens, UniProt P25021); assay: Off-target binding screen; details: 1000 nM, read-out: % Inhibition of Control Specific Binding
T9 construct: Eurofins Pharma Discovery Services (contract assay)
T9 sequence (P25021 whole entry): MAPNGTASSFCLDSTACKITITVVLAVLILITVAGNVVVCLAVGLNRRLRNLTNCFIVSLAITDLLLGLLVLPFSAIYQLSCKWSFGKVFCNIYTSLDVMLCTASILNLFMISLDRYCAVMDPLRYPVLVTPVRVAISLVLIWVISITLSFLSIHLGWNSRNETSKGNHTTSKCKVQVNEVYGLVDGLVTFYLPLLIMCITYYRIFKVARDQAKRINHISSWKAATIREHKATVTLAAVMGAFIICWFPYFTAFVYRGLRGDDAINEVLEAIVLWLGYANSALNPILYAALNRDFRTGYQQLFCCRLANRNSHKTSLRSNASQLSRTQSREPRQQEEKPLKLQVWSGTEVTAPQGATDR

[11] = molecular target: T10, σ1 (Homo sapiens, UniProt Q99720); assay: Off-target binding screen; details: read-out: % Inhibition of Control Specific Binding; for inhibition at 0.01 µM: 10 nM; for inhibition at 0.1 µM: 100 nM; for inhibition at 1 µM: 1000 nM
T10 construct: Eurofins Pharma Discovery Services (contract assay)
T10 sequence (Q99720 whole entry): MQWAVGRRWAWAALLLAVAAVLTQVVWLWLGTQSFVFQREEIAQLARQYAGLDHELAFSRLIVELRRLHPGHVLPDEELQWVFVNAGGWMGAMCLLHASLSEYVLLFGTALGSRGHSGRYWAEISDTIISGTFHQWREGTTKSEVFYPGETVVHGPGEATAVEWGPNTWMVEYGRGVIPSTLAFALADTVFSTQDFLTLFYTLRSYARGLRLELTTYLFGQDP

[12] = test system: BZD (peripheral); assay: Off-target binding screen; details: 1000 nM
[13] = molecular target: T11, BZDp (TSPO) (Homo sapiens, UniProt P30536); assay: Off-target binding screen; details: 1000 nM, read-out: % Inhibition of Control Specific Binding
T11 construct: Eurofins Pharma Discovery Services (contract assay)
T11 sequence (P30536 whole entry): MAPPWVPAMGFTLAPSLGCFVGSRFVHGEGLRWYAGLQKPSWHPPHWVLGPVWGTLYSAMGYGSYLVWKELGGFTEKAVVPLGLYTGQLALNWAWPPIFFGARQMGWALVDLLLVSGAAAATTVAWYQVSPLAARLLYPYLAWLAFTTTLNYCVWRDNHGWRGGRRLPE

SMILES	CLint scaled at […], 50 µM [1] [mL/min/kg]	inhibition at 1 µM [2] [%]	inhibition at 1 µM [3] [%]	inhibition at 1 µM [4] [%]	inhibition at 0.01 µM [5] [%]	inhibition at 0.1 µM [5] [%]	inhibition at 1 µM [5] [%]	inhibition at 1 µM [6] [%]	inhibition at 1 µM [7] [%]	inhibition at 1 µM [8] [%]	inhibition at 1 µM [9] [%]	inhibition at 1 µM [10] [%]	inhibition at 0.01 µM [11] [%]	inhibition at 0.1 µM [11] [%]	inhibition at 1 µM [11] [%]	% Inhibition of Control Specific Binding [12] [%]	inhibition at 1 µM [13] [%]	inhibition at 0.01 µM ([6]; 10 nM) [%]	inhibition at 0.1 µM ([6]; 100 nM) [%]
O=C(c1ccc(F)c(Cl)c1)N1CCC(F)(CNCCOc2ccccc2)CC1 [Compound 3]	41.7	11	-15	-4	-2	45	85	30	-9	1	-9	-15	1	15	88	-1.0	-10		
CNc1ccccc1OCCNCC1(F)CCN(C(=O)c2ccc(F)c(Cl)c2)CC1 [Compound 44, (3-Chloro-4-fluorophenyl)(4-fluoro-4-(((2-(2-(methylamino)phenoxy)ethyl)amino)methyl)piperidin-1-yl)methanone]	48.8	23	-9	-11			-2	36	3	9	-11	-28	11	31	84	-5.0	-10		
O=C(c1ccc(F)c(Cl)c1)N1CCC(F)(CNCCOc2cccc3[nH]ccc23)CC1 [Compound 56, (4-(((2-((1H-Indol-4-yl)oxy)ethyl)amino)methyl)-4-fluoropiperidin-1-yl)(3-chloro-4-fluorophenyl)methanone]	9.6	48	6	-10	-8	29	75	89	-15	1	-10	-33	1	22	86	-1.0	-6	12	52
